Data reported in PMC9098913, “In vitro reconstitution of Escherichia coli divisome activation” (Nature Communications, 2022).
Where “and” joins values, the source holds several entries; their conditions need not be identical. Equal entries are not always repeated.

Columns and labels:
[1] = tested on: FtsA self-interaction; experiment: FRET (acceptor photobleaching) self-interaction of FtsA on supported lipid bilayers; assay type: binding, E. coli
Description: To directly measure FtsA self-interaction in our fluorescence microscopy experiments, we established a FRET (Förster resonance energy transfer)-based assay using FtsA labelled with either Cy5 (acceptor) or Cy3 (donor). […] We then decided to use this approach to measure the degree of FtsA self-interaction on supported lipid membranes by quantifying the increase in donor fluorescence after photobleaching the acceptor fluorophore[30]–[32] (Fig. 3c–e and Fig. S3d). […] As a negative control, we also attached the Hexahistidine-SUMO-tag (His-SUMO) labelled with Cy5 and Cy3 to membranes with an increasing density of Tris-NTA lipids.
Equimolar concentrations of Cy3- and Cy5-labelled FtsA, supplemented with 20% unlabelled FtsA were used to study FRET and FRAP. Five pre-bleach frames were acquired, followed by acceptor photobleaching of a rectangular ROI with 40% 641 nm laser power and a dwell size of 1 µs/pixel, 75% overlapping lines. The recovery of the signal or the increase in donor intensity were measured with either two frames or one frame per second.
Bleaching the acceptor dye leads to an increase in the donor intensity, which can be used to quantify the Foerster Resonance energy transfer (FRET)[48]. FRET efficiency was quantified with E%=Ipost/Ipost+Ipre⋅100 , where Ipost is the intensity of the […] and Ipre is the […]. […] To extract the contribution of both processes, we adjusted a routine recently published by Gerganova et al.[33]. In short, the code provides the contribution of both modes of recovery by analysing the shape of the fluorescence recovery profile. […] Contribution of diffusion leads to a change of the slope of the outer borders of the bleached region (S4h right). Thus, by measuring the change of the slope of the border recovery, diffusion and simple on/off binding can be distinguished. We developed “FRAPdiff”, a graphical user interface, which uses the original fit routine by David Rutkowski. It can be used directly on.tiff movies with annotated bleach regions as ImageJ ROIs. In addition, we added optional bleach correction, user selectable projection axis (x or y), and optional mirroring of the recovery profiles, if bleaching was not symmetric. The original fit routine for estimating the recovery and diffusion dynamics can be found at https://github.com/davidmrutkowski/1DReflectingDiffusion. FRAPdiff is available at 10.5281/zenodo.6400639[49] under the GPLv3 open-source license.

[2] = tested on: FtsZ filaments; experiment: FtsZ turnover / lifetime / off-rate, single-molecule tracking; assay type: biochemical, E. coli
Procedure: Single-molecule experiments were performed as described previously. In short, individual FtsZ proteins were imaged at single-molecule level by adding small amounts of Cy5-labelled FtsZ (200 pM) to a chamber with 0.2 or 0.4 µM FtsA and 1.25 μM Alexa488-FtsZ.
Single molecules of FtsA or FtsZ were tracked using the TrackMate plugin from ImageJ[43]. To obtain the residence time of FtsZ and FtsA, we performed a residence time analysis as described before[40],[47]. Shortly, single molecules were imaged at different acquisition rates (0.1–2 s) and the lifetime of the molecules was extracted from each data set. To account for photobleaching effect, the obtained lifetimes were plotted against the acquisition rate. […] Furthermore, we extracted the diffusion coefficient of FtsA single molecules at increasing concentrations. For this, we filtered the obtained data, by considering only trajectories which are present on the membrane for more than 0.4 s. […] Subsequently, the diffusion coefficient of FtsA molecules was estimated by fitting an MSD curve to each individual trajectory.

## FtsA WT: wild-type E. coli actin-homologue FtsA, membrane anchor of FtsZ
[1]; 0.1 µM FtsA + FtsN&Z
  FRET efficiency, mean: 15.28%
[1]; 0.1 µM FtsA + FtsN
  FRET efficiency, mean: 8.5880% and 8.59%
[1]; 0.1 µM FtsA + FtsZ
  FRET efficiency, mean: 7.8480% and 7.85%
[1]; 0.1 µM FtsA alone
  FRET efficiency, mean: 8.1133%
[1]; 0.2 µM FtsA + FtsN&Z
  FRET efficiency, mean: 17.79%
[1]; 0.2 µM FtsA + FtsN
  FRET efficiency, mean: 12.6840% and 12.68%
[1]; 0.2 µM FtsA + FtsZ
  FRET efficiency, mean: 12.5828% and 12.58%
[1]; 0.2 µM FtsA alone
  FRET efficiency, mean: 16.69%
[1]; 0.4 µM FtsA + FtsN&Z
  FRET efficiency, mean: 30.1680% and 30.17%
[1]; 0.4 µM FtsA + FtsN
  FRET efficiency, mean: 27.2922% and 27.29%
[1]; 0.4 µM FtsA + FtsZ
  FRET efficiency, mean: 17.7412% and 17.74%
[1]; 0.4 µM FtsA alone
  FRET efficiency, mean: 22.27%
[1]; 0.4 µM FtsA with FtsNcyto and FtsZ, p-value 0.64
  FRET efficiency: 30.2 ± 9.6%
[1]; 0.4 µM FtsA, p-value 6.12 × 10^−9
  FRET efficiency: 22.1 ± 5.7%
[1]; 0.8 µM FtsA + FtsN&Z
  FRET efficiency, mean: 34.2167% and 34.22%
[1]; 0.8 µM FtsA + FtsN
  FRET efficiency, mean: 29.89%
[1]; 0.8 µM FtsA + FtsZ
  FRET efficiency, mean: 27.1326% and 27.13%
[1]; 0.8 µM FtsA alone
  FRET efficiency, mean: 31.17%
[1]; Fig. S3f, 0.2µM FtsA + N/Z, replicate 1
  FRET efficiency: 17.94%
[1]; Fig. S3f, 0.2µM FtsA + N/Z, replicate 2
  FRET efficiency: 16.55%
[1]; Fig. S3f, 0.2µM FtsA + N/Z, replicate 3
  FRET efficiency: 18.88%
[1]; Fig. S3f, 0.2µM FtsA + N, replicate 1
  FRET efficiency: 7.76%
[1]; Fig. S3f, 0.2µM FtsA + N, replicate 2
  FRET efficiency: 9.38%
[1]; Fig. S3f, 0.2µM FtsA + N, replicate 3
  FRET efficiency: 9.72%
[1]; Fig. S3f, 0.2µM FtsA + Z, replicate 1
  FRET efficiency: 9.62%
[1]; Fig. S3f, 0.2µM FtsA + Z, replicate 2
  FRET efficiency: 10.06%
[1]; Fig. S3f, 0.2µM FtsA + Z, replicate 3
  FRET efficiency: 7.69%
[1]; Fig. S3f, 0.2µM FtsA, replicate 1
  FRET efficiency: 12.55%
[1]; Fig. S3f, 0.2µM FtsA, replicate 2
  FRET efficiency: 13.62%
[1]; Fig. S3f, 0.2µM FtsA, replicate 3
  FRET efficiency: 23.13%
[1]; Fig. S3f, 0.4µM FtsA + N/Z, replicate 1
  FRET efficiency: 16.64%
[1]; Fig. S3f, 0.4µM FtsA + N/Z, replicate 2
  FRET efficiency: 39.69%
[1]; Fig. S3f, 0.4µM FtsA + N/Z, replicate 3
  FRET efficiency: 38.87%
[1]; Fig. S3f, 0.4µM FtsA + N, replicate 1
  FRET efficiency: 18.29%
[1]; Fig. S3f, 0.4µM FtsA + N, replicate 2
  FRET efficiency: 25.77%
[1]; Fig. S3f, 0.4µM FtsA + N, replicate 3
  FRET efficiency: 38.25%
[1]; Fig. S3f, 0.4µM FtsA + Z, replicate 1
  FRET efficiency: 14.31%
[1]; Fig. S3f, 0.4µM FtsA + Z, replicate 2
  FRET efficiency: 10.18%
[1]; Fig. S3f, 0.4µM FtsA + Z, replicate 3
  FRET efficiency: 12.8%
[1]; Fig. S3f, 0.4µM FtsA, replicate 1
  FRET efficiency: 20.04%
[1]; Fig. S3f, 0.4µM FtsA, replicate 2
  FRET efficiency: 14.17%
[1]; Fig. S3f, 0.4µM FtsA, replicate 3
  FRET efficiency: 22.75%
[1]; Fig. S3n, AMP PNP, 0.10 µM FtsA, replicate 1
  FRET efficiency: 2.62%
[1]; Fig. S3n, AMP PNP, 0.10 µM FtsA, replicate 2
  FRET efficiency: -0.01%
[1]; Fig. S3n, AMP PNP, 0.20 µM FtsA, replicate 1
  FRET efficiency: 5.42%
[1]; Fig. S3n, AMP PNP, 0.20 µM FtsA, replicate 2
  FRET efficiency: 10.85%
[1]; Fig. S3n, AMPPNP, 0.10 µM FtsA, summary value
  FRET efficiency: 1.30%
[1]; Fig. S3n, AMPPNP, 0.20 µM FtsA, summary value
  FRET efficiency: 8.14%
[1]; Fig. S3n, AMPPNP, 0.40 µM FtsA, summary value
  FRET efficiency: 9.64%
[1]; Fig. S3n, AMPPNP, 0.80 µM FtsA, summary value
  FRET efficiency: 10.07%
[1]; Fig. S3n, ATP, 0.10 µM FtsA, summary value
  FRET efficiency: 8.36%
[1]; Fig. S3n, ATP, 0.20 µM FtsA, summary value
  FRET efficiency: 16.69%
[1]; Fig. S3n, ATP, 0.40 µM FtsA, summary value
  FRET efficiency: 22.27%
[1]; Fig. S3n, ATP, 0.80 µM FtsA, summary value
  FRET efficiency: 31.17%
[1]; Fig. S3n, ATPgS, 0.10 µM FtsA, summary value
  FRET efficiency: 4.97%
[1]; Fig. S3n, ATPgS, 0.20 µM FtsA, summary value
  FRET efficiency: 9.83%
[1]; Fig. S3n, ATPgS, 0.40 µM FtsA, summary value
  FRET efficiency: 14.66%
[1]; Fig. S3n, ATPgS, 0.80 µM FtsA, summary value
  FRET efficiency: 21.79%
[1]; presence of FtsNcyto
  effect of FtsNcyto on FRET: small FRET increase

B1: FtsA R286W (protein)
chain: MIKATDRKLVVGLEIGTAKVAALVGEVLPDGMVNIIGVGSCPSRGMDKGGVNDLESVVKCVQRAIDQAELMADCQISSVYLALSGKHISCQNEIGMVPISEEEVTQEDVENVVHTAKSVRVRDEHRVLHVIPQEYAIDYQEGIKNPVGLSGVRMQAKVHLITCHNDMAKNIVKAVERCGLKVDQLIFAGLASSYSVLTEDERELGVCVVDIGGGTMDIAVYTGGALRHTKVIPYAGNVVTSDIAYAFGTPPSDAEAIKVRHGCALGSIVGKDESVEVPSVGGRPPWSLQRQTLAEVIEPRYTELLNLVNEEILQLQEKLRQQGVKHHLAAGIVLTGGAAQIEGLAACAQRVFHTQVRIGAPLNITGLTDYAQEPYYSTAVGLLHYGKESHLNGEAEVEKRVTASVGSWIKRLNSWLRKEF
modifications: Cy3 or Cy5 at the N-terminus in the labelled form (labelled CLEPTGG peptide conjugated to the 5xGly tag by sortagging); unlabelled protein also used; left off: TwinStrep-SUMO, N-terminal, cleaved | 5x
[2]
  FtsZ turnover compared to the wild-type protein: slightly decreased
